This is an account of results in patent publication US6664426B1, “Ether and ester derivatives of the perborate icosahedron” (The Regents of the University of California, priority 2000, dated 2003).

A short description of this data set: Qualitative solubility in water. The format is physicochemical. To be noted: qualitative statement.

For the substance Cs2[closo-B12(OH)12] [dicesium salt], the solubility in water entry is listed as “freely soluble in water”.

For Cs2[closo-B12H12]^2−, the solubility in water result was “sparingly water-soluble”. Regarding Cs[closo-1-CB11H12]^−, the solubility in water result is recorded as “sparingly water-soluble”.

Take closo-1,12-(CH2OH)2-1,12-C2B10H10: the solubility in water result is listed as “slightly water-soluble”.

closo-1,12-C2B10H12: the solubility in water result is recorded as “not water-soluble”.
